Patent US6743753B2, “Herbicidal compositions” (priority 1998, dated 2004)

Tests used:
Assay type in all cases: in vivo
Settings in all cases: 28 DAT
[1] = tested on: Echinochloa crus-galli (ECGCH); assay: Post-emergence treatment of ECGCH, visual assessment of weed control
Excerpt: (§1) Seed of various weed species were sown and grown up to a 2-4 leaves stage. The said weeds are Echinochloa crus-galli (hereafter ECGCH), Leptochloa chinensis (hereafter LEFCH), Monochoria vaginalis (hereafter MOOVA) and Cyperus difformis (hereafter CYPDI).
(§2) Mixtures of pyribenzoxim and a partner herbicide were applied post emergence in a water diluted form using a laboratory sprayer. A visual assessment was made 28 days after treatment (DAT).
(§3) In the tables that follow ‘dose’ represents the dose rate in grammes per hectare of the active ingredient used; the figures for the weed control are percentage reductions in growth when compared with untreated controls; and CpdA represents pyribenzoxim.

[2] = tested on: Leptochloa chinensis (LEFCH); assay: Post-emergence treatment of LEFCH, visual assessment of weed control
Excerpt: as §1, §2, §3

[3] = tested on: Monochoria vaginalis (MOOVA); assay: Post-emergence treatment of MOOVA, visual assessment of weed control
Excerpt: as §1, §2, §3

[4] = tested on: Cyperus difformis (CYPDI); assay: Post-emergence treatment of CYPDI, visual assessment of weed control
Excerpt: as §1, §2, §3

## COc1cc(OC)nc(NC(=O)NS(=O)(=O)Cc2ccccc2C(=O)O)n1 [bensulfuron, α-(4,6-dimethoxypyrimidin-2-ylcarbamoylsulfamoyl)-o-toluic acid]
[1]; bensulfuron 6.5 g/ha alone
  weed control, percentage reduction in growth vs untreated controls: 30%
[1]; bensulfuron 13 g/ha alone
  weed control, percentage reduction in growth vs untreated controls: 50%
[1]; bensulfuron 25 g/ha alone
  weed control, percentage reduction in growth vs untreated controls: 70%
[2]; Table 4, LEFCH (2 leaf), bensulfuron 25 g/ha alone
  weed control, percentage reduction in growth vs untreated controls: 0%
[2]; Table 4, LEFCH (2 leaf), bensulfuron 50 g/ha alone
  weed control, percentage reduction in growth vs untreated controls: 0%

## CC(Oc1ccc(Oc2nc3ccc(Cl)cc3o2)cc1)C(=O)O (racemic) [fenoxaprop, [(±)-2-[4-(6-chloro-1,3-benzoxazol-2-yloxy)phenoxy]propionic acid]
[2]; Table 2, fenoxaprop 15 g/ha alone
  weed control, percentage reduction in growth vs untreated controls: 0%
[2]; Table 2, fenoxaprop 30 g/ha alone
  weed control, percentage reduction in growth vs untreated controls: 0%
[2]; Table 2, fenoxaprop 60 g/ha alone
  weed control, percentage reduction in growth vs untreated controls: 0%
[3]; Table 7, MOOVA (2 leaf), fenoxaprop 15 g/ha alone
  weed control, percentage reduction in growth vs untreated controls: 0%
[3]; Table 7, MOOVA (2 leaf), fenoxaprop 30 g/ha alone
  weed control, percentage reduction in growth vs untreated controls: 0%
[3]; Table 7, MOOVA (2 leaf), fenoxaprop 60 g/ha alone
  weed control, percentage reduction in growth vs untreated controls: 30%
[3]; Table 7, MOOVA (2 leaf), fenoxaprop 120 g/ha alone
  weed control, percentage reduction in growth vs untreated controls: 70%
[4]; Table 10, fenoxaprop 30 g/ha alone
  weed control, percentage reduction in growth vs untreated controls: 0%
[4]; Table 10, fenoxaprop 60 g/ha alone
  weed control, percentage reduction in growth vs untreated controls: 0%

## CC(C)N1C(=O)c2ccccc2NS1(=O)=O [bentazone, 3-isopropyl-1H-2,1,3-benzothiadiazin-4(3H)-one 2,2-dioxide]
[2]; Table 3, bentazone 375 g/ha alone
  weed control, percentage reduction in growth vs untreated controls: 0%
[2]; Table 3, bentazone 750 g/ha alone
  weed control, percentage reduction in growth vs untreated controls: 20%
[2]; Table 3, bentazone 1500 g/ha alone
  weed control, percentage reduction in growth vs untreated controls: 20%
[4]; Table 11, bentazone 375 g/ha alone
  weed control, percentage reduction in growth vs untreated controls: 80%
[4]; Table 11, bentazone 750 g/ha alone
  weed control, percentage reduction in growth vs untreated controls: 80%

## COc1cc(OC)nc(Oc2cccc(Oc3nc(OC)cc(OC)n3)c2C(=O)ON=C(c2ccccc2)c2ccccc2)n1 [CpdA, benzophenone O-{2,6-bis[(4,6-dimethoxypyrimidyl)oxy]benzoyl}oxime]
[1]; CpdA 7.5 g/ha alone
  weed control, percentage reduction in growth vs untreated controls: 20%
[2]; Table 2, CpdA 15 g/ha alone
  weed control, percentage reduction in growth vs untreated controls: 0%
[2]; Table 2, CpdA 30 g/ha alone
  weed control, percentage reduction in growth vs untreated controls: 30%
[2]; Table 2, CpdA 60 g/ha alone
  weed control, percentage reduction in growth vs untreated controls: 30%
[2]; Table 3, CpdA 15 g/ha alone
  weed control, percentage reduction in growth vs untreated controls: 0%
[2]; Table 3, CpdA 30 g/ha alone
  weed control, percentage reduction in growth vs untreated controls: 30%
[2]; Table 3, CpdA 60 g/ha alone
  weed control, percentage reduction in growth vs untreated controls: 30%
[2]; Table 4, LEFCH (2 leaf), CpdA 15 g/ha alone
  weed control, percentage reduction in growth vs untreated controls: 50%
[2]; Table 5, LEFCH (2 leaf), CpdA 7.5 g/ha alone
  weed control, percentage reduction in growth vs untreated controls: 30%
[2]; Table 5, LEFCH (2 leaf), CpdA 15 g/ha alone
  weed control, percentage reduction in growth vs untreated controls: 50%
[2]; Table 6, LEFCH (2 leaf), CpdA 7.5 g/ha alone
  weed control, percentage reduction in growth vs untreated controls: 30%
[2]; Table 6, LEFCH (2 leaf), CpdA 15 g/ha alone
  weed control, percentage reduction in growth vs untreated controls: 50%
[3]; Table 7, MOOVA (2 leaf), CpdA 15 g/ha alone
  weed control, percentage reduction in growth vs untreated controls: 0%
[3]; Table 7, MOOVA (2 leaf), CpdA 30 g/ha alone
  weed control, percentage reduction in growth vs untreated controls: 70%
[3]; Table 8, MOOVA (2 leaf), CpdA 15 g/ha alone
  weed control, percentage reduction in growth vs untreated controls: 100%
[3]; Table 8, MOOVA (2 leaf), CpdA 30 g/ha alone
  weed control, percentage reduction in growth vs untreated controls: 100%
[3]; Table 9, MOOVA (2 leaf), CpdA 7.5 g/ha alone
  weed control, percentage reduction in growth vs untreated controls: 100%
[4]; Table 10, CpdA 15 g/ha alone
  weed control, percentage reduction in growth vs untreated controls: 60%
[4]; Table 11, CpdA 7.5 g/ha alone
  weed control, percentage reduction in growth vs untreated controls: 0%

## Cc1ccc(C(=O)COc2c(C(=O)c3ccc(Cl)c(C)c3Cl)c(C)nn2C)cc1 [benzofenap, 2-[4-(2,4-dichloro-m-toluoyl)-1,3-dimethylpyrazol-5-yloxy]-4-′methylacetophenone]
[2]; Table 6, LEFCH (2 leaf), benzofenap 600 g/ha alone
  weed control, percentage reduction in growth vs untreated controls: 10%
[2]; Table 6, LEFCH (2 leaf), benzofenap 1200 g/ha alone
  weed control, percentage reduction in growth vs untreated controls: 20%
[3]; Table 9, MOOVA (2 leaf), benzofenap 150 g/ha alone
  weed control, percentage reduction in growth vs untreated controls: 0%
[3]; Table 9, MOOVA (2 leaf), benzofenap 300 g/ha alone
  weed control, percentage reduction in growth vs untreated controls: 0%
